Reference: patent publication US9018258B2, “Substituted 1-benzylcycloalkylcarboxylic acids and the use thereof” (Bayer Intellectual Property GmbH, priority 2010, dated 2015)

What was measured:
GAL4-PPARγ = molecular target: T1, GAL4-PPARγ (Homo sapiens, UniProt P37231); test: Cellular PPAR transactivation assay, GAL4-PPARγ chimera in CHO-K1 cells; assay type: cell-based; conditions: for Emax: CHO-K1, maximum effect relative to reference compound (Example 73 of EP 1 452 521-A1 = 100%), read-out: PPARγ efficacy; for EC50: CHO-K1 cells, luciferase reporter, 6 h stimulation
T1 construct: PPARγ (amino acids 203-506); expressed in transfected cells
T1 sequence (P37231 203-505 limits assumed): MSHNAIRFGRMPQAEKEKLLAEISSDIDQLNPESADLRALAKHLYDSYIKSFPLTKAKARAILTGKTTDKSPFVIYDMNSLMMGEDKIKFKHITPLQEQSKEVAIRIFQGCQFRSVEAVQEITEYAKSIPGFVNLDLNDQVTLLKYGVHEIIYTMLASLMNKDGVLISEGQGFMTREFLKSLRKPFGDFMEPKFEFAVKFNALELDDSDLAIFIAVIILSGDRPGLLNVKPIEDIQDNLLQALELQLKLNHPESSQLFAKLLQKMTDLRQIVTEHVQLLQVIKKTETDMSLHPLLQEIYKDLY
In short: (§1)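 CHO-K1 cells stably expressing GAL4 DNA-binding domain fused to the human PPAR ligand-binding domain (α aa 167-468, γ aa 203-506, δ aa 138-442) plus a GAL4-driven firefly luciferase reporter. Compounds added in serum-free medium for 6 h; EC50 from luminescence curves. Efficacy in % of a pan-PPAR agonist reference set as 100%.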

[1] = molecular target: T2, soluble guanylate cyclase (sGC) (Rattus norvegicus, UniProt P20595); test: Stimulation of sGC enzyme activity (PPi detection, luciferase); assay type: biochemical; conditions: sGC enzyme in vitro; for EC50: read-out: EC50 (concentration at 50% of maximum efficacy), activating action at the sGC enzyme
T2 construct: made in house; host or cells: Sf9 insect cells (baculovirus)
Experimental: Soluble guanylate cyclase (sGC) converts on stimulation GTP into cGMP and pyrophosphate (PPi). PPi is detected with the aid of the assay described below. The signal produced in the assay increases as the reaction progresses and serves as a measure of the sGC enzyme activity under the given stimulation.
To carry out the assay, 29 μl of enzyme solution [0-10 nM soluble guanylate cyclase (prepared according to Honicka et al., J. Mol. Med. 77, 14-23 (1999)) in 50 mM TEA, 2 mM MgCl2, 0.1% BSA (fraction V), 0.005% Brij®, pH 7.5] are initially introduced into a microplate, and 1 μl of the substance to be tested (as a serially diluted solution in DMSO) is added. The mixture is incubated at room temperature for 10 min. Then 20 μl of detection mix [1.2 nM Firefly Luciferase (Photinus pyralis luciferase, Promega), 29 μM dehydroluciferin (prepared according to Bitler & McElroy, Arch. Biochem. Biophys. 72, 358 (1957)), 122 μM luciferin (Promega), 153 μM ATP (Sigma) and 0.4 mM DTT (Sigma) in 50 mM TEA, 2 mM MgCl2, 0.1% BSA (fraction V), 0.005% Brij®, pH 7.5] are added. The enzyme reaction is started by adding 20 μl of substrate solution [1.25 mM guanosine 5′-triphosphate (Sigma) in 50 mM TEA, 2 mM MgCl2, 0.1% BSA (fraction V), 0.005% Brij®, pH 7.5] and measured continuously in a luminometer. The extent of the stimulation by the substance to be tested can be determined relative to the signal of the unstimulated reaction.
The activation of haem-free guanylate cyclase is examined by addition of 25 μM of 1H-1,2,4-oxadiazolo[4,3-a]quinoxalin-1-one (ODQ) to the enzyme solution and subsequent incubation for 30 minutes and compared to the stimulation of the native enzyme.

GAL4-PPARδ = molecular target: T3, GAL4-PPARδ (Homo sapiens, UniProt Q03181); test: Cellular PPAR transactivation assay, GAL4-PPARδ chimera in CHO-K1 cells; assay type: cell-based; conditions: for Emax: CHO-K1, maximum effect relative to reference compound (Example 73 of EP 1 452 521-A1 = 100%), read-out: PPARδ efficacy; for EC50: CHO-K1 cells, luciferase reporter, 6 h stimulation
T3 construct: PPARδ (amino acids 138-442); expressed in transfected cells
T3 sequence (Q03181 138-441 limits assumed): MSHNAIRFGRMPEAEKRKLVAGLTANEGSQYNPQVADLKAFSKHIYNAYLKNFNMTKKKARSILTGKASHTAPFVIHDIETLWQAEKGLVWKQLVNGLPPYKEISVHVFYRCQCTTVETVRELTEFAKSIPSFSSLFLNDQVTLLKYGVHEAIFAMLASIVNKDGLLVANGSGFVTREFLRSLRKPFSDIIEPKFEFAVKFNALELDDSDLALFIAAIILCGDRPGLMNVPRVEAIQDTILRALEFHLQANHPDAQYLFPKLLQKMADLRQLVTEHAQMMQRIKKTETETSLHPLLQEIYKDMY
In short: as §1

T2 sequence (P19686 whole entry partner): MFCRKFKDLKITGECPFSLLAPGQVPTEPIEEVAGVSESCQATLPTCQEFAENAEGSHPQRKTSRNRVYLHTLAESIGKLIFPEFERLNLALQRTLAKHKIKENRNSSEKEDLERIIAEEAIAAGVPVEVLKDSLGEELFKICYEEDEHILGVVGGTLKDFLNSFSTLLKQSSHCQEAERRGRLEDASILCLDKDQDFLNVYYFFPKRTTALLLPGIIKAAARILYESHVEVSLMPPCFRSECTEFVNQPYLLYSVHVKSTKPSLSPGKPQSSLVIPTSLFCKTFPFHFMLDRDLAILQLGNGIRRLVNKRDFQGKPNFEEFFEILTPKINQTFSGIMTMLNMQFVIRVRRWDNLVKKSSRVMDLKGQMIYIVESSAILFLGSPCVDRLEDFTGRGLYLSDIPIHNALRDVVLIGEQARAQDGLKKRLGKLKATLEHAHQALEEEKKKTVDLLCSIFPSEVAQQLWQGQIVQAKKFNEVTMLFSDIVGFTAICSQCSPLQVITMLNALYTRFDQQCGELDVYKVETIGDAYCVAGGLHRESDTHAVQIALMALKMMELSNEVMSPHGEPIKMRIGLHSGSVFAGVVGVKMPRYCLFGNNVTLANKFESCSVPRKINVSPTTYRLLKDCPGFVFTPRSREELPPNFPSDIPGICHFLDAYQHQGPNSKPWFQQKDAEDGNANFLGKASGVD
T2 sequence (P20595 whole entry): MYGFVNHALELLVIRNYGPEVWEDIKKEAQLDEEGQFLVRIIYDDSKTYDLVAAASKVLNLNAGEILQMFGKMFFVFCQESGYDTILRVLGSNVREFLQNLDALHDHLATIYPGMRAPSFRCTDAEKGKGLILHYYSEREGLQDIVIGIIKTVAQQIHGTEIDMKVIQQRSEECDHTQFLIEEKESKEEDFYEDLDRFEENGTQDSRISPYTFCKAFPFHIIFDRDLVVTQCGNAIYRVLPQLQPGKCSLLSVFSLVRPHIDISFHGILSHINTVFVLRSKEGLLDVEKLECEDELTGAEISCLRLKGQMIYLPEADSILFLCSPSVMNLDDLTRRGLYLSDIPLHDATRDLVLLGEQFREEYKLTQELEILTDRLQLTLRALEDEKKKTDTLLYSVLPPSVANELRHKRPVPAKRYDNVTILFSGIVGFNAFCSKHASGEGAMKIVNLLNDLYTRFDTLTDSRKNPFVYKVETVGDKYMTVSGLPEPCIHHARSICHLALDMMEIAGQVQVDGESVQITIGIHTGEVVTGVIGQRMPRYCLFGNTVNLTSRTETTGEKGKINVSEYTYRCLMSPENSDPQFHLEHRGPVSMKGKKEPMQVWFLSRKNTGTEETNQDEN

Compound | Emax (GAL4-PPARγ) | EC50 (GAL4-PPARγ) | MEC (minimum effective concentration), activating action at the sGC enzyme [1] | EC50 [1] | Emax (GAL4-PPARδ) | EC50 (GAL4-PPARδ)
CCOC(c1ccc(Cl)c(NC(=O)[C@H](c2ccc(Cl)cc2)[C@@H](C)C(F)(F)F)c1)C1(C(=O)O)CC1 (single isomer, unassigned) [Example 101] | 0% | > 10 µM | 0.7 nM | 0.0046 µM | 0% | > 10 µM
[2H]C([2H])([2H])OC(c1ccc(Cl)c(NC(=O)[C@H](c2ccc(Cl)cc2)[C@@H](C)C(F)(F)F)c1)C1(C(=O)O)CC1 (single isomer, unassigned; (+)) [Example 99] | 0% | > 10 µM | 4.1 nM | 0.053 µM | 0% | > 10 µM
C[C@H]([C@H](C(=O)Nc1cc(CC2(C(=O)O)CC2)ccc1Cl)c1ccc(Cl)c(F)c1)C(F)(F)F [Example 30, (+)-1-(4-chloro-3-{[(2S,3R)-2-(4-chloro-3-fluoro-phenyl)-4,4,4-trifluoro-3-methylbutanoyl]amino}-benzyl)cyclopropanecarboxylic acid] | 20% | 2.3 µM | 0.6 nM | 0.0076 µM | 0% | > 10 µM
C[C@H]([C@H](C(=O)Nc1cc(CC2(C(=O)O)CC2)ccc1Cl)c1ccc(Cl)cc1)C(F)(F)F [Example 50, (+)-1-(4-Chloro-3-{[(2S,3R)-2-(4-chlorophenyl)-4,4,4-trifluoro-3-methylbutanoyl]amino}benzyl)-cyclopropanecarboxylic acid] | 45% | 3 µM | 0.7 nM | 0.0073 µM | 0% | > 10 µM
